Experimental data from patent US20210395313A1, “PEPTIDE PAC1 ANTAGONISTS” (AMGEN INC., priority 2017, published 2021).
Where a SMILES comes first, the peptide text is derived from it. Bridges are numbered along the chain shown (N, C = ends). Where no end group is shown, it is not given here.

Legend:
[1] = target: T1, rat PAC1 receptor (Rattus norvegicus, UniProt P32215); test: LANCE Ultra cAMP accumulation antagonist assay in RG-2 cells; type: cell-based;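 further: RG-2 rat glioma cells endogenously expressing PAC1, test peptide preincubated 30 min, then PAC1 agonist added at its EC80 for 15 min, cAMP accumulation read by LANCE Ultra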
T1 construct: SHSY-5Y (human neuroblastoma cell line) and RG-2 (rat glioma cell line) cells endogenously express human and rat PAC1 receptors, respectively; endogenous in cells; host or cells: RG-2 rat glioma cells
T1 sequence (P32215 20-523): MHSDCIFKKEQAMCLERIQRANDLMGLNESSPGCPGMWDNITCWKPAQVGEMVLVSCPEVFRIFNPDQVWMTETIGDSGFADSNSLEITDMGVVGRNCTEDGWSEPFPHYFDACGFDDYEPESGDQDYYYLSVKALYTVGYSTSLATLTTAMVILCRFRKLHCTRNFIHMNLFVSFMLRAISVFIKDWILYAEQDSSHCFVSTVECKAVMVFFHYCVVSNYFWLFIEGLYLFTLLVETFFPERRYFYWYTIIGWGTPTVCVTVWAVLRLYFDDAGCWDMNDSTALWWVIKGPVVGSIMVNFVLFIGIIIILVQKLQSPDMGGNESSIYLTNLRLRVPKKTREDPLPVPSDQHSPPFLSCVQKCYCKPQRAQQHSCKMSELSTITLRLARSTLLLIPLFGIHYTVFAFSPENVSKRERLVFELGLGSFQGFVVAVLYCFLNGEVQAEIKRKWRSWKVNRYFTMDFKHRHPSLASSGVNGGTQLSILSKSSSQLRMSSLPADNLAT

[2] = target: T2, human PAC1 receptor (Homo sapiens, UniProt P41586); test: LANCE Ultra cAMP accumulation antagonist assay in SHSY-5Y cells; type: cell-based;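 further: inhibition of cAMP accumulation evoked by PAC1 agonist at its EC80 in SHSY-5Y cells endogenously expressing receptor, 30 min preincubation then 15 min agonist, TR-FRET readout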
T2 construct: SHSY-5Y (human neuroblastoma cell line) and RG-2 (rat glioma cell line) cells endogenously express human and rat PAC1 receptors, respectively; endogenous in cells; host or cells: SHSY-5Y human neuroblastoma cells
T2 sequence (P41586 21-468): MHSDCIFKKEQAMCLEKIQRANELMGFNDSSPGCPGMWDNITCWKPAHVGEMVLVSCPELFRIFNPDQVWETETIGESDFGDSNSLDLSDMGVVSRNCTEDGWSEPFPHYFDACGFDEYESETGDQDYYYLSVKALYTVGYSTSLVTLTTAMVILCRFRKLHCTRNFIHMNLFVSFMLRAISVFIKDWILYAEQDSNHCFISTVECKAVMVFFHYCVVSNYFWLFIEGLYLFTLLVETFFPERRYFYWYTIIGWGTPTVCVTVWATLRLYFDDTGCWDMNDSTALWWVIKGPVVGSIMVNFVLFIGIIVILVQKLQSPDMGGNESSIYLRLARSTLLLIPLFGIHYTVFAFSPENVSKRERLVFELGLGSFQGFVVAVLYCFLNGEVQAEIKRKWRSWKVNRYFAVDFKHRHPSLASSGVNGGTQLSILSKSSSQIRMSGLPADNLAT
Protocol: In order to determine the potency of peptide antagonists at the PAC1 receptor, functional cAMP accumulation assays using LANCE Ultra cAMP assay kit to measure the agonist and antagonist activity of PAC1 peptides were used. SHSY-5Y (human neuroblastoma cell line) and RG-2 (rat glioma cell line) cells endogenously express human and rat PAC1 receptors, respectively. Agonist activity of PAC1 peptides was tested by incubating with SHSY-5Y at 2,000 cells per well or RG-2 at 5,000 cells per well for 15 minutes at room temperature. PAC1 receptor agonist PACAP38 or maxadilan was included as a positive control. The reaction was stopped by adding detection mixture, europium (Eu) chelate-labeled cAMP tracer and cAMP-specific monoclonal antibodies labeled with the ULight™ dye, to all wells followed by a 60-minute incubation at room temperature. The assay plates were then read on an EnVision instrument at an emission wavelength of 665 and 615 nm and data were analyzed using Genedata Screener or GraphPad Prism software. A similar procedure was used in the antagonist assays by using a fixed concentration of PAC1 agonist. The concentrations of agonists were chosen based on their ECK) values at PAC1 receptors in SHSY-5Y or RG-2 cells. SHSY-5Y or RG-2 cells were added into 96-well half-area white plates. Serially diluted PAC1 peptides at ten concentrations were added and incubated for 30 minutes at room temperature. PAC1 agonist at EC80 concentration was then added and further incubated for 15 minutes at room temperature. The reaction was stopped by adding detection mixture to all wells followed by a 60-minute incubation at room temperature. The assay plates were read and analyzed the same way as that of agonist assay. Cells, agonists, and PAC1 peptides were prepared in freshly made assay buffer (F-12, 0.5 mM IBMX, 0.1 or 0.4% BSA (pH 7.4)). Detection mixture was made by mixing a 1/50 dilution of the Eu-cAMP tracer stock solution in cAMP Detection Buffer and a 1/150 dilution of the ULight-anti-cAMP stock solution in cAMP Detection Buffer. Europium (Eu) chelate-labeled cAMP tracer, cAMP-specific monoclonal antibodies labeled with the ULight™ dye, BSA, and detection buffer were provided in LANCE Ultra cAMP Kit from PerkinElmer

| Molecule | IC50 [1] [nM] | IC50 [2] [nM] |
| --- | --- | --- |
| CC[C@H](C)[C@H](NC(=O)[C@H](C)NC(=O)[C@H](CCCCN)NC(=O)[C@H](CCCNC(=N)N)NC(=O)[C@H](Cc1ccccc1)NC(=O)[C@H](CCC(N)=O)NC(=O)[C@@H]1CSSC[C@H](N)C(=O)N[C@@H](CC(=O)O)C(=O)N[C@@H](C)C(=O)N[C@@H]([C@@H](C)O)C(=O)N1)C(=O)N[C@@H](CC(=O)O)C(=O)N[C@@H](CC(=O)O)C(=O)N[C@H]1CSSC[C@@H](C(=O)N[C@@H](CCSC)C(=O)N[C@@H](CCCCN)C(=O)N[C@@H](CCC(N)=O)C(=O)N[C@@H](CCCCN)C(=O)N[C@@H](CCCCN)C(=O)N[C@@H](CCCCN)C(=O)N[C@@H](CCC(=O)O)C(=O)N[C@@H](Cc2c[nH]c3ccccc23)C(=O)N[C@@H](CCCCN)C(=O)N[C@@H](C)C(=O)NCC(=O)N[C@@H](Cc2c[nH]cn2)C(=O)O)NC(=O)[C@H](C)NC(=O)[C@H](CCCCN)NC(=O)[C@H](Cc2ccccc2)NC(=O)[C@H](C(C)C)NC(=O)[C@H](CO)NC(=O)[C@H](CO)NC(=O)[C@H](Cc2c[nH]cn2)NC(=O)[C@H](Cc2c[nH]cn2)NC(=O)[C@H](C)NC(=O)[C@H](CCC(N)=O)NC(=O)[C@H](CCCNC(=N)N)NC(=O)[C@H](C)NC1=O [compound 28] (H-CDATCQFRKAIDDCARQAHHSSVFKACMKQKKKEWKAGH-OH; disulfide 1-5, 14-27) | 0.01 to 1 | 0.01 to 1 |
| CDATCQFRKAIDDCQKQAHHSNVPGSVFKACLLQKKKEFKAG-NH2 (disulfide 1-5, 14-31) [compound 100] | 1 to 100 | 1 to 100 |
| CC[C@H](C)[C@H](NC(=O)[C@H](C)NC(=O)[C@H](CCCCN)NC(=O)[C@H](CCCNC(=N)N)NC(=O)[C@H](Cc1ccccc1)NC(=O)[C@H](CCC(N)=O)NC(=O)[C@@H]1CSSC[C@H](N)C(=O)N[C@@H](CC(=O)O)C(=O)N[C@@H](C)C(=O)N[C@@H]([C@@H](C)O)C(=O)N1)C(=O)N[C@@H](CC(=O)O)C(=O)N[C@@H](CC(=O)O)C(=O)N[C@H]1CSSC[C@@H](C(=O)N[C@@H](CCSC)C(=O)N[C@@H](CCCCN)C(=O)N[C@@H](CCC(N)=O)C(=O)N[C@@H](CCCCN)C(=O)N[C@@H](CCCCN)C(=O)N[C@@H](CCCCN)C(=O)N[C@@H](CCC(=O)O)C(=O)N[C@@H](Cc2ccccc2)C(=O)N[C@@H](CCCCN)C(=O)N[C@@H](C)C(=O)NCC(=O)N[C@@H](Cc2ccc(O)cc2)C(=O)O)NC(=O)[C@H](C)NC(=O)[C@H](CCCCN)NC(=O)[C@H](Cc2ccccc2)NC(=O)[C@H](C(C)C)NC(=O)[C@H](CO)NC(=O)[C@H](CO)NC(=O)[C@H](Cc2c[nH]cn2)NC(=O)[C@H](Cc2c[nH]cn2)NC(=O)[C@H](C)NC(=O)[C@H](CCC(N)=O)NC(=O)[C@H](CCCCN)NC(=O)[C@H](C)NC1=O [compound 29] (H-CDATCQFRKAIDDCAKQAHHSSVFKACMKQKKKEFKAGY-OH; disulfide 1-5, 14-27) | 0.01 to 1 | 0.01 to 1 |
| CDATCQFRKAIDDCQKQAHHSNVPGSVFKACMKQKKKEFKAW (disulfide 1-5, 14-31) [compound 95] | 1 to 100 | 1 to 100 |
| CDATCQFRKAIDDCYYRSWHSNVPGSVFKACMKQKKKEFKAG-NH2 (disulfide 1-5, 14-31) [compound 149] | 0.01 to 1 | 0.01 to 1 |
| CDATCQFRKAIDDCYYRAWHSNVPGSVFKACMKQKKKEFKAG-NH2 (disulfide 1-5, 14-31) [compound 104] | 0.01 to 1 | 0.01 to 1 |
| CDATCQFRKAIDDCVYSAWHANVPGSVFKACMKQKKKEFKAG-NH2 (disulfide 1-5, 14-31) [compound 137] | 0.01 to 1 | 0.01 to 1 |
| CC[C@H](C)[C@H](NC(=O)[C@H](C)NC(=O)[C@H](CCCCN)NC(=O)[C@H](CCCNC(=N)N)NC(=O)[C@H](Cc1ccccc1)NC(=O)[C@H](CCC(N)=O)NC(=O)[C@@H]1CSSC[C@H](N)C(=O)N[C@@H](CC(=O)O)C(=O)N[C@@H](C)C(=O)N[C@@H]([C@@H](C)O)C(=O)N1)C(=O)N[C@@H](CC(=O)O)C(=O)N[C@@H](CC(=O)O)C(=O)N[C@H]1CSSC[C@@H](C(=O)N[C@@H](CCSC)C(=O)N[C@@H](CCCCN)C(=O)N[C@@H](CCC(N)=O)C(=O)N[C@@H](CCCCN)C(=O)N[C@@H](CCCCN)C(=O)N[C@@H](CCCCN)C(=O)N[C@@H](CCC(=O)O)C(=O)N[C@@H](Cc2ccccc2)C(=O)N[C@@H](CCCCN)C(N)=O)NC(=O)[C@H](CCC(=O)O)NC(=O)[C@H](CCCCN)NC(=O)[C@H](Cc2ccccc2)NC(=O)[C@H](C(C)C)NC(=O)[C@H](CO)NC(=O)[C@H](CC(N)=O)NC(=O)[C@@H]2CCCN2C(=O)[C@H](C(C)C)NC(=O)[C@H](CC(N)=O)NC(=O)[C@H](CO)NC(=O)[C@H](Cc2c[nH]cn2)NC(=O)[C@H](Cc2c[nH]cn2)NC(=O)[C@H](C)NC(=O)[C@H](CCC(N)=O)NC(=O)[C@H](CCCCN)NC(=O)[C@H](CCC(N)=O)NC1=O [compound 311] (H-CDATCQFRKAIDDCQKQAHHSNVPNSVFKECMKQKKKEFK-NH2; disulfide 1-5, 14-31) | 1 to 100 | > 100 |
| CC[C@H](C)[C@H](NC(=O)[C@H](C)NC(=O)[C@H](CCCCN)NC(=O)[C@H](CCCNC(=N)N)NC(=O)[C@H](Cc1ccccc1)NC(=O)[C@H](CCC(N)=O)NC(=O)[C@@H]1CSSC[C@H](N)C(=O)N[C@@H](CC(=O)O)C(=O)N[C@@H](C)C(=O)N[C@@H]([C@@H](C)O)C(=O)N1)C(=O)N[C@@H](CC(=O)O)C(=O)N[C@@H](CC(=O)O)C(=O)N[C@H]1CSSC[C@@H](C(=O)N[C@@H](CCSC)C(=O)N[C@@H](CCCCN)C(=O)N[C@@H](CCC(N)=O)C(=O)N[C@@H](CCCCN)C(=O)N[C@@H](CCCCN)C(=O)N[C@@H](CCCCN)C(=O)N[C@@H](CCC(=O)O)C(=O)N[C@@H](Cc2ccccc2)C(=O)N[C@@H](CCCCN)C(N)=O)NC(=O)[C@H](CCC(=O)O)NC(=O)[C@H](CCCCN)NC(=O)[C@H](Cc2ccccc2)NC(=O)[C@H](CO)NC(=O)[C@H](CC(N)=O)NC(=O)[C@H](CO)NC(=O)[C@H](Cc2c[nH]cn2)NC(=O)[C@H](Cc2c[nH]cn2)NC(=O)[C@H](C)NC(=O)[C@H](CCC(N)=O)NC(=O)[C@H](CCCCN)NC(=O)[C@H](CC(=O)O)NC1=O [compound 222] | 1 to 100 | < 0.01 |
| CDATCQFRKAIDDCDKQAHHSNVPGSVFKACMKQKKKEFQAG-NH2 (disulfide 1-5, 14-31) [compound 169] | 0.01 to 1 | 0.01 to 1 |
| CDATCQFRKAIDDCARQAHHSNVPGSVFKLCMKQKKKEWKAGH (disulfide 1-5, 14-31) [compound 23] | < 0.01 | 0.01 to 1 |
| CDATCQFRKAIDDCYYYAMHSNVPGSVWKACLKQKKKEFKAG-NH2 (disulfide 1-5, 14-31) [compound 78] | 0.01 to 1 | 0.01 to 1 |
| CC[C@H](C)[C@H](NC(=O)[C@H](C)NC(=O)[C@H](CCCCN)NC(=O)[C@H](CCCNC(=N)N)NC(=O)[C@H](Cc1ccccc1)NC(=O)[C@H](CCC(N)=O)NC(=O)[C@@H]1CSSC[C@H](NC(=O)CN)C(=O)N[C@@H](CC(=O)O)C(=O)N[C@@H](C)C(=O)N[C@@H]([C@@H](C)O)C(=O)N1)C(=O)N[C@@H](CC(=O)O)C(=O)N[C@@H](CC(=O)O)C(=O)N[C@H]1CSSC[C@@H](C(=O)N[C@@H](CCSC)C(=O)N[C@@H](CCCCN)C(=O)N[C@@H](CCC(N)=O)C(=O)N[C@@H](CCCCN)C(=O)N[C@@H](CCCCN)C(=O)N[C@@H](CCCCN)C(=O)N[C@@H](CCC(=O)O)C(=O)N[C@@H](Cc2c[nH]c3ccccc23)C(=O)N[C@@H](CCCCN)C(=O)N[C@@H](C)C(=O)NCC(=O)N[C@@H](Cc2c[nH]cn2)C(=O)O)NC(=O)[C@H](C)NC(=O)[C@H](CCCCN)NC(=O)[C@H](Cc2ccccc2)NC(=O)[C@H](C(C)C)NC(=O)[C@H](CO)NC(=O)[C@H](CO)NC(=O)[C@H](Cc2c[nH]cn2)NC(=O)[C@H](Cc2c[nH]cn2)NC(=O)[C@H](C)NC(=O)[C@H](CCC(N)=O)NC(=O)[C@H](CCCNC(=N)N)NC(=O)[C@H](C(C)C)NC1=O [compound 15] (H-GCDATCQFRKAIDDCVRQAHHSSVFKACMKQKKKEWKAGH-OH; disulfide 2-6, 15-28) | 0.01 to 1 | 0.01 to 1 |
| CDATCQFRKAIDDCLWYARHSNVPGSVFKACMKQKKKEFKAG-NH2 (disulfide 1-5, 14-31) [compound 120] | 0.01 to 1 | 0.01 to 1 |
| CDATCQFRKAIDDCQKQAHHSNVPGSVFKACMKFRFNVWKAG-NH2 (disulfide 1-5, 14-31) [compound 127] | 0.01 to 1 | 0.01 to 1 |
| CDATCQFRKAIDECAKQAHHSNVPGSVFKACMKQKKKEFKAG-NH2 (disulfide 1-5, 14-31) [compound 12] | < 0.01 | 0.01 to 1 |
| CDATCQFRKAIDDCQKQAHHSNVPGSVFKACVKQKKKEFKAG-NH2 (disulfide 1-5, 14-31) [compound 142] | 1 to 100 | 1 to 100 |
